Experimental data reported in patent US20230233569A1 (Revolution Medicines, Inc., priority 2020, published 2023).
Read-outs that look alike come from different tables or passages of the source.

Tests used:
[1] = target: NRAS WT (Homo sapiens, UniProt P01111+P62937); test: Ras-Raf disruption / FRET / MOA assay (BRAF RBD); assay type: biochemical
Summary of the method: (§1)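 TR-FRET in 25 mM HEPES pH 7.3, 100 mM NaCl, 5 mM MgCl2, 0.1% BSA, 0.002% Tween20 with 25 μM Cyclophilin A, 12.5 nM His6-Ras-GMPPNP, 50 nM GST-BRAF RBD; compound 10-point 3-fold series from 30 μM. After 3 h at 25 °C, Eu anti-His/APC anti-GST added for 1.5 h; IC50 from ratio decrease versus DMSO.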

[2] = target: NRAS Q61K (Homo sapiens, UniProt P01111+P62937, Q61K); test: Ras-Raf disruption / FRET / MOA assay (BRAF RBD); assay type: biochemical
Sequence of NRAS Q61K (P01111 whole entry Q61K): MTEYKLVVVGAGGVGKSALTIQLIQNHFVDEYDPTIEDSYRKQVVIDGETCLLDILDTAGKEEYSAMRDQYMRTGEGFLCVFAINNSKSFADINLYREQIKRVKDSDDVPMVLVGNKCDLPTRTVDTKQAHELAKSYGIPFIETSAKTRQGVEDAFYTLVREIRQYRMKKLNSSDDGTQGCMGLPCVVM
Sequence of NRAS Q61K (P62937 whole entry): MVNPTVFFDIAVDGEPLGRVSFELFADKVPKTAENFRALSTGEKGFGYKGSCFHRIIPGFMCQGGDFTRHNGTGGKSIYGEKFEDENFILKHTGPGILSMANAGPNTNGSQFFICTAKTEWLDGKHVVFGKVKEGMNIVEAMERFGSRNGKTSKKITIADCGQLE
Summary of the method: as §1

[3] = target: KRAS G12D (Homo sapiens, UniProt P01116+P62937, G12D); test: Ras-Raf disruption / FRET / MOA assay (BRAF RBD); assay type: biochemical; conditions: KRAS G12D FRET data IC50, Ras-Raf disruption, with Cyclophilin A
Sequence of KRAS G12D (P01116 1-169 isoform P01116-2 G12D limits assumed): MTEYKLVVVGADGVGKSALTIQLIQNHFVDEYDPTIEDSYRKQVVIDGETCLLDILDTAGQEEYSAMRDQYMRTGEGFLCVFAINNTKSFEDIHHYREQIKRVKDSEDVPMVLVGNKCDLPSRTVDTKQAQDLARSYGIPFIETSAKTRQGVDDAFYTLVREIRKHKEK
Sequence of KRAS G12D (P62937 whole entry): as the sequence (P62937 whole entry) above
Summary of the method: as §1

[4] = target: KRAS G12S (Homo sapiens, UniProt P01116+P62937, G12S); test: Ras-Raf disruption / FRET / MOA assay (BRAF RBD); assay type: biochemical; conditions: KRAS G12S FRET data IC50, Ras-Raf disruption, with Cyclophilin A
Sequence of KRAS G12S (P01116 1-169 isoform P01116-2 G12S limits assumed): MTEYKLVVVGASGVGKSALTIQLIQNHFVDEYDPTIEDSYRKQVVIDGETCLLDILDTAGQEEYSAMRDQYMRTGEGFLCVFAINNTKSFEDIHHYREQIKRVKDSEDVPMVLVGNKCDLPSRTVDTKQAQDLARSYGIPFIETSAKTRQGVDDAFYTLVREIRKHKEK
Sequence of KRAS G12S (P62937 whole entry): as the sequence (P62937 whole entry) above
Summary of the method: as §1

[5] = target: NRAS Q61R (Homo sapiens, UniProt P01111+P62937, Q61R); test: Ras-Raf disruption / FRET / MOA assay (BRAF RBD); assay type: biochemical
Sequence of NRAS Q61R (P01111 whole entry Q61R): as the sequence (P01111 whole entry Q61K) above, with K61R counted along it
Sequence of NRAS Q61R (P62937 whole entry): as the sequence (P62937 whole entry) above
Summary of the method: as §1

[6] = target: KRAS G13C (Homo sapiens, UniProt P01116+P62937, G13C); test: Ras-Raf disruption / FRET / MOA assay (BRAF RBD); assay type: biochemical; conditions: KRAS G13C FRET data IC50, Ras-Raf disruption, with Cyclophilin A
Sequence of KRAS G13C (P01116 1-169 isoform P01116-2 G13C limits assumed): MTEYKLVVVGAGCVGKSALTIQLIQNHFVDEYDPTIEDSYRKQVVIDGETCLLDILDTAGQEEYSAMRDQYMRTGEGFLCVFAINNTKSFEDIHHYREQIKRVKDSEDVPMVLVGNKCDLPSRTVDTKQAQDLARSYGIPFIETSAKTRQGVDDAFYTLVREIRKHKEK
Sequence of KRAS G13C (P62937 whole entry): as the sequence (P62937 whole entry) above
Summary of the method: as §1

[7] = target: NRAS G12C (Homo sapiens, UniProt P01111+P62937, G12C); test: Ras-Raf disruption / FRET / MOA assay (BRAF RBD); assay type: biochemical; conditions: NRAS G12C FRET data IC50, NRAS G12C
Sequence of NRAS G12C (P01111 whole entry G12C): as the sequence (P01111 whole entry Q61K) above, with G12C, K61Q counted along it
Sequence of NRAS G12C (P62937 whole entry): as the sequence (P62937 whole entry) above
Summary of the method: as §1

[8] = target: KRAS WT (Homo sapiens, UniProt P01116+P62937); test: Ras-Raf disruption / FRET / MOA assay (BRAF RBD); assay type: biochemical; conditions: KRAS WT FRET data IC50, Ras-Raf disruption, with Cyclophilin A
Sequence of KRAS WT (P01116 1-169 isoform P01116-2 limits assumed): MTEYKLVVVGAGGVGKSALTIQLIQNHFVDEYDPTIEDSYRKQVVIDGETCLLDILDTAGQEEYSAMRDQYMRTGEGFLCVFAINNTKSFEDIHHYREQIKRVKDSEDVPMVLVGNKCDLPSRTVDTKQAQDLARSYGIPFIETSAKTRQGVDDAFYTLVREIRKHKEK
Sequence of KRAS WT (P62937 whole entry): as the sequence (P62937 whole entry) above
Summary of the method: as §1

[9] = target: KRAS G12V (Homo sapiens, UniProt P01116+P62937, G12V); test: Ras-Raf disruption / FRET / MOA assay (BRAF RBD); assay type: biochemical; conditions: KRAS G12V FRET data IC50, Ras-Raf disruption, with Cyclophilin A
Sequence of KRAS G12V (P01116 1-169 isoform P01116-2 G12V limits assumed): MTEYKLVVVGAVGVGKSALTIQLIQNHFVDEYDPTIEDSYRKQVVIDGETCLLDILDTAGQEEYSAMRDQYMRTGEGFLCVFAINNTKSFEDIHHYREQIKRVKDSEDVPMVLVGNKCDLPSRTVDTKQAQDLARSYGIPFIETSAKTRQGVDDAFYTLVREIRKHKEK
Sequence of KRAS G12V (P62937 whole entry): as the sequence (P62937 whole entry) above
Summary of the method: as §1

[10] = target: KRAS G13D (Homo sapiens, UniProt P01116+P62937, G13D); test: Ras-Raf disruption / FRET / MOA assay (BRAF RBD); assay type: biochemical; conditions: KRAS G13D FRET data IC50, Ras-Raf disruption, with Cyclophilin A
Sequence of KRAS G13D (P01116 1-169 isoform P01116-2 G13D limits assumed): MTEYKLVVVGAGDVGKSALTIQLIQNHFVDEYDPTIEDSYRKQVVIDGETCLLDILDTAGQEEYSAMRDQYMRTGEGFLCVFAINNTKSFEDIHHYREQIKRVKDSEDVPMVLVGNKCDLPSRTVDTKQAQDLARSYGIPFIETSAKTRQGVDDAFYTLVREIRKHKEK
Sequence of KRAS G13D (P62937 whole entry): as the sequence (P62937 whole entry) above
Summary of the method: as §1

[11] = target: KRAS Q61H (Homo sapiens, UniProt P01116+P62937, Q61H); test: Ras-Raf disruption / FRET / MOA assay (BRAF RBD); assay type: biochemical
Sequence of KRAS Q61H (P01116 1-169 isoform P01116-2 Q61H limits assumed): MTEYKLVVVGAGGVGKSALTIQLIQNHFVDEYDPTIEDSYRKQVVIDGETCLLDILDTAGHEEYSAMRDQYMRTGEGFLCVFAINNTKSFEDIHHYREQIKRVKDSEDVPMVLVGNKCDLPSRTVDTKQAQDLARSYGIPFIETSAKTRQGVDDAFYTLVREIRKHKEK
Sequence of KRAS Q61H (P62937 whole entry): as the sequence (P62937 whole entry) above
Summary of the method: as §1

[12] = system: AsPC-1 (K-Ras G12D); test: Potency assay: pERK; assay type: cell-based; conditions: Homo sapiens
[13] = system: AsPC-1 (K-Ras G12D); test: CellTiter-Glo cell viability assay; assay type: cell-based; conditions: Homo sapiens, ASPC1, 120 h
Experimental: Determination of Cell Viability in RAS Mutant Cancer Cell Lines
Protocol: CellTiter-Glo® Cell Viability Assay
Note—The following protocol describes a procedure for monitoring cell viability of K-Ras mutant cancer cell lines in response to a compound of the invention. Other RAS isoforms may be employed, though the number of cells to be seeded will vary based on cell line used.
Test compounds (132.5 nL) were directly dispensed into the assay plates containing cells. […] On day 5, assay plates and their contents were equilibrated to room temperature for approximately 30 minutes. […] Luminescence was measured using the PerkinElmer Enspire. Data were normalized by the following: (Sample signal/Avg. DMSO)*100. The data were fit using a four-parameter logistic fit.

[14] = target: KRAS G12C (Homo sapiens, UniProt P01116+P62937, G12C); test: Ras-Raf disruption / FRET / MOA assay (BRAF RBD); assay type: biochemical; conditions: KRAS G12C FRET data IC50, Ras-Raf disruption, with Cyclophilin A
Sequence of KRAS G12C (P01116 1-169 isoform P01116-2 G12C limits assumed): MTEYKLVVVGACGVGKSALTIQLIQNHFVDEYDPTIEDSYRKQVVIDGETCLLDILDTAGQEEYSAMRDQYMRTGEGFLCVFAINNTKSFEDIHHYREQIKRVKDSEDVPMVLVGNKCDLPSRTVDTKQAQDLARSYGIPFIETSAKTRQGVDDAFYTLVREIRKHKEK
Sequence of KRAS G12C (P62937 whole entry): as the sequence (P62937 whole entry) above
Summary of the method: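 His6-K-Ras G12C-GMPPNP (12.5 nM), GST-BRAF RBD (50 nM) and tagless Cyclophilin A (25 μM) incubated 3 h at 25 °C with compound (10-point 3-fold series from 30 μM), pH 7.3 HEPES buffer. Anti-His Eu/anti-GST APC added for 1.5 h; decreased TR-FRET ratio vs DMSO gives IC50.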

[15] = read-out: AsPC-1 Cell Viability assay data IC50, K-Ras G12D, 5-day treatment

Sequence of NRAS WT (P01111 whole entry): as the sequence (P01111 whole entry Q61K) above, with K61Q counted along it
Sequence of NRAS WT (P62937 whole entry): as the sequence (P62937 whole entry) above

| SMILES | IC50 [1] [nM] | IC50 [2] [nM] | IC50 [3] [nM] | IC50 [4] [nM] | IC50 [5] [nM] | IC50 [6] [nM] | IC50 [7] [nM] | IC50 [8] [nM] | IC50 [9] [nM] | IC50 [10] [nM] | IC50 [11] [nM] | EC50 ([12]; ASPC1, read-out: pERK EC50) [nM] | IC50 [13, 15] [nM] | IC50 [14] [nM] | EC50 ([12]; ASPC1, AsPC-1 KRAS G12D, read-out: pERK EC50) [nM] | IC50 ([13]; K-Ras G12D, 5-day treatment, read-out: AsPC-1 Cell Viability assay data IC50) [nM] |
| --- | --- | --- | --- | --- | --- | --- | --- | --- | --- | --- | --- | --- | --- | --- | --- | --- |
| CCn1c(-c2cccnc2[C@H](C)OC)c2c3cc(ccc31)-c1cc(O)cc(c1)C[C@H](NC(=O)[C@H](C(C)C)N(C)C(=O)CN(C)C(=O)[C@H]1N[C@H]1C1COC1)C(=O)N1CCC[C@H](N1)C(=O)OCC(C)(C)C2 [Example 282] | 10 to 100 | 100 to 1000 | 10 to 100 | 10 to 100 | 100 to 1000 | < 10 | 10 to 100 | 10 to 100 | 10 to 100 | 10 to 100 | 10 to 100 | < 5000 | 1000 to 10000 | 10 to 100 |  |  |
| CCn1c(-c2cccnc2[C@H](C)OC)c2c3cc(ccc31)-c1cc(O)cc(c1)C[C@H](NC(=O)[C@H](C(C)C)N(C)C(=O)CN(C)C(=O)[C@H]1CN1CCCN1CCOC1=O)C(=O)N1CCC[C@H](N1)C(=O)OCC(C)(C)C2 (stereo partly shown) [Example 272] | 10 to 100 | 100 to 1000 | 100 to 1000 | 10 to 100 | 100 to 1000 | 10 to 100 | < 10 | 10 to 100 | 10 to 100 | 100 to 1000 | 10 to 100 | < 5000 | 1000 to 10000 | < 10 |  |  |
| CCn1c(-c2cccnc2[C@H](C)OC)c2c3cc(ccc31)-c1cc(O)cc(c1)C[C@H](NC(=O)[C@H](C(C)C)N(C)C(=O)CN(C)C(=O)[C@@H]1N[C@@H]1C1COC1)C(=O)N1CCC[C@H](N1)C(=O)OCC(C)(C)C2 [Example 281] | 10 to 100 | 10 to 100 | 10 to 100 | < 10 | 100 to 1000 | 10 to 100 | < 10 | 10 to 100 | 10 to 100 | 10 to 100 | < 10 | < 5000 | 100 to 1000 | < 10 |  |  |
| CCn1c(-c2cccnc2[C@H](C)OC)c2c3cc(ccc31)-c1cc(O)cc(c1)C[C@H](NC(=O)[C@H](C(C)C)N(C)C(=O)CN(C)C(=O)[C@@H]1CN1CC1COC1)C(=O)N1CCC[C@H](N1)C(=O)OCC(C)(C)C2 (stereo partly shown) [Example 278] | 10 to 100 | 100 to 1000 | 10 to 100 | 10 to 100 | 100 to 1000 | 10 to 100 | < 10 | 10 to 100 | 10 to 100 | 100 to 1000 | 10 to 100 | < 5000 | 1000 to 10000 | 10 to 100 |  |  |
| CCn1c(-c2cccnc2[C@H](C)OC)c2c3cc(ccc31)-c1cc(O)cc(c1)C[C@H](NC(=O)[C@H](C(C)C)N(C)C(=O)CN(C)C(=O)[C@@H]1CN1CC(=O)N(C)C)C(=O)N1CCC[C@H](N1)C(=O)OCC(C)(C)C2 (stereo partly shown) [Example 271] | 100 to 1000 | 100 to 1000 | 100 to 1000 | 10 to 100 | 100 to 1000 | 10 to 100 | < 10 | 10 to 100 | 100 to 1000 | 100 to 1000 | 10 to 100 | < 5000 | > 10000 | < 10 |  |  |
| CCn1c(-c2cccnc2[C@H](C)OC)c2c3cc(ccc31)-c1cc(O)cc(c1)C[C@H](NC(=O)[C@H](C(C)C)N(C)C(=O)CN(C)C(=O)[C@H]1CN1CCCN1CCCC1=O)C(=O)N1CCC[C@H](N1)C(=O)OCC(C)(C)C2 (stereo partly drawn) [Example 268, (2R)—N-(2-(((2S)-1-(((6^3S,4S)-1^1-ethyl-2^5-hydroxy-1^2-(2-((S)-1-methoxyethyl)pyridin-3-yl)-10,10-dimethyl-5,7-dioxo-6^1,6^2,6^3,6^4,6^5,6^6-hexahydro-1^1H-8-oxa-1(5,3)-indola-6(1,3)-pyridazina-2(1,3)-benzenacycloundecaphane-4-yl)amino)-3-methyl-1-oxobutan-2-yl)(methyl)amino)-2-oxoethyl)-N-methyl-1-(3-(2-oxopyrrolidin-1-yl)propyl)aziridine-2-carboxamide] | 10 to 100 | 100 to 1000 | 100 to 1000 | 10 to 100 | 100 to 1000 | 10 to 100 | < 10 | 10 to 100 | 10 to 100 | 100 to 1000 | 10 to 100 | < 5000 | 1000 to 10000 | < 10 |  |  |
| CCn1c(-c2cccnc2[C@H](C)OC)c2c3cc(ccc31)-c1cc(O)cc(c1)C[C@H](NC(=O)[C@H](C(C)C)N(C)C(=O)CN(C)C(=O)[C@H]1N[C@@H]1C1COC1)C(=O)N1CCC[C@H](N1)C(=O)OCC(C)(C)C2 [Example 284] | 10 to 100 | 100 to 1000 | 10 to 100 | 10 to 100 | 100 to 1000 | < 10 | < 10 | 10 to 100 | 10 to 100 | 10 to 100 | 10 to 100 | < 5000 | 1000 to 10000 | 10 to 100 |  |  |
| CCn1c(-c2cccnc2[C@H](C)OC)c2c3cc(ccc31)-c1cc(O)cc(c1)C[C@H](NC(=O)[C@H](C(C)C)N(C)C(=O)CN(C)C(=O)[C@H]1CN1C1COC1)C(=O)N1CCC[C@H](N1)C(=O)OCC(C)(C)C2 (stereo partly shown) [Example 275] | 100 to 1000 | 100 to 1000 | 100 to 1000 | 10 to 100 | 100 to 1000 | 10 to 100 | 10 to 100 | 100 to 1000 | 100 to 1000 | 100 to 1000 | 10 to 100 | < 5000 | 1000 to 10000 | 10 to 100 |  |  |
| CCn1c(-c2cccnc2[C@H](C)OC)c2c3cc(ccc31)-c1cc(O)cc(c1)C[C@H](NC(=O)[C@H](C(C)C)N(C)C(=O)[C@H]1CC[C@@H](C)N1C(=O)[C@H]1CN1)C(=O)N1CCC[C@H](N1)C(=O)OCC(C)(C)C2 [Example 154] |  |  | 1000 to 10000 | 100 to 1000 |  | 100 to 1000 | 10 to 100 | 100 to 1000 | 100 to 1000 | 1000 to 10000 |  | < 5000 | 1000 to 10000 | 10 to 100 |  |  |
| CCn1c(-c2cccnc2[C@H](C)OC)c2c3cc(ccc31)-c1cc(O)cc(c1)C[C@H](NC(=O)[C@H](C(C)C)N(C)C(=O)[C@]13C[C@H]1CCN3C(=O)[C@@H]1CN1)C(=O)N1CCC[C@H](N1)C(=O)OCC(C)(C)C2 [Example 166] | 100 to 1000 | 1000 to 10000 | 100 to 1000 | 100 to 1000 | 1000 to 10000 | 100 to 1000 | 100 to 1000 | 100 to 1000 | 100 to 1000 | 100 to 1000 | 10 to 100 |  |  | 100 to 1000 | < 5000 | 1000 to 10000 |
